melting point	Compound
131 to 133 °C	C=C(C)c1cc(Br)c(Oc2nc(C)nc(N3CCOCC3)n2)c(OC)c1 [Example 6, 2-[2-bromo-6-methoxy-4-(1-methylethenyl)phenoxy]-4-methyl-6-(4-morpholinyl)-1,3,5-triazine]
63 to 67 °C	C=C(C)c1cc(Br)c(Oc2nc(C)nc(N3CCOCC3)n2)c(OC)c1 [Example 5, 2-[2-bromo-6-methoxy-4-(1-methylethenyl)phenoxy]-4-methyl-6-(4-morpholinyl)-1,3,5-triazine]

From patent publication US6818648B2, “Aryloxy- and arylthiosubstituted pyrimidines and triazines and derivatives thereof” (Bristol-Myers Squibb Pharma, priority 1996, dated 2004)
